# Test results reported in US10011571B2, “Preparation method for aromatic heterocyclic compound used as selective JAK3 and/or JAK1 kinase inhibitor and application of aromatic heterocyclic compound” (SHENZHEN CHIPSCREEN BIOSCIENCES, LTD., priority 2014, dated 2018).
# Counter-ions that a name gives are not always drawn.
# Tests used:
# JAK1 = JAK1 (Homo sapiens (Human), UniProt P23458); assay: Z'-LYTE enzymatic activity detection, JAK1; type: biochemical; conditions: test compound 300 nM; for inhibition at 0.3 µM: read-out: JAK1 % inhibitory rate @300 nM
# JAK1, sequence (P23458 whole entry): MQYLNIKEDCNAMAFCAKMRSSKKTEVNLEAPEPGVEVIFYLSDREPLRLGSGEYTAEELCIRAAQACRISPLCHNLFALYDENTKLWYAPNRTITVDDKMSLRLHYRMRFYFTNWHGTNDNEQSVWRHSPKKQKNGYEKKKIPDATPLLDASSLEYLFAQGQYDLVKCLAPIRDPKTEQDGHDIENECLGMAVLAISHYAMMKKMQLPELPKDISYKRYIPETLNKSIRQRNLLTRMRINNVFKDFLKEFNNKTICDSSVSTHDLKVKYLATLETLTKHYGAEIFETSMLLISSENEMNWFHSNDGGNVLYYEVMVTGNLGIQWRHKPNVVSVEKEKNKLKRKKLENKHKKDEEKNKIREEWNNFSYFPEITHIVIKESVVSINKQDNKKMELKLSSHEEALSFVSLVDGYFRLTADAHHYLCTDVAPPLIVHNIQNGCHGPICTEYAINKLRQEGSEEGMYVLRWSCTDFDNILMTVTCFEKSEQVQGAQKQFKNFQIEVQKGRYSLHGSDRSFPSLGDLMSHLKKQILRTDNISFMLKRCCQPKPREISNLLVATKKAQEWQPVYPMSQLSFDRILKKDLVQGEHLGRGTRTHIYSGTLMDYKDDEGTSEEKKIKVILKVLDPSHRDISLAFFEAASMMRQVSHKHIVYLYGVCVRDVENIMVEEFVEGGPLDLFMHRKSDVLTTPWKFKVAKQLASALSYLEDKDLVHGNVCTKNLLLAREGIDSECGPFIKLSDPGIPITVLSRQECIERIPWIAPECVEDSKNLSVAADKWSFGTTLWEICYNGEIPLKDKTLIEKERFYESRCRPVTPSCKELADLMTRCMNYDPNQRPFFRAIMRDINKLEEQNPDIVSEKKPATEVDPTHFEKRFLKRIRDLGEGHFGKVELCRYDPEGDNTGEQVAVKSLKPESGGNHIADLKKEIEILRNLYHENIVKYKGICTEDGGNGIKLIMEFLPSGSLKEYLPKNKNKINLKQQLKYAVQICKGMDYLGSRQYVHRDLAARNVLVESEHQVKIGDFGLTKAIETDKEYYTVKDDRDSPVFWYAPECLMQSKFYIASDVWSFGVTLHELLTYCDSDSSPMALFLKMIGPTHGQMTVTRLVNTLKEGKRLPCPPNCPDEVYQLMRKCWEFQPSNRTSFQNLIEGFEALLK
# Summary of the method: (§1)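 GST-tagged human recombinant kinases with Z′-LYTE peptides (Tyr6 for JAK1, Tyr4 for JAK2 and JAK3), ATP from kit, reacted 1 h at room temperature; development 1 h, ratio 445/520 nm at 400 nm excitation gives phosphorylation. Inhibition vs solvent control at 30 nM (JAK2, JAK3) or 300 nM (JAK1); tofacitinib as positive control.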
# JAK2 = JAK2 (Homo sapiens (Human), UniProt O60674); assay: Z'-LYTE enzymatic activity detection, JAK2; type: biochemical; conditions: test compound 30 nM; for inhibition at 0.03 µM: read-out: JAK2 % inhibitory rate @30 nM
# JAK2, sequence (O60674 whole entry): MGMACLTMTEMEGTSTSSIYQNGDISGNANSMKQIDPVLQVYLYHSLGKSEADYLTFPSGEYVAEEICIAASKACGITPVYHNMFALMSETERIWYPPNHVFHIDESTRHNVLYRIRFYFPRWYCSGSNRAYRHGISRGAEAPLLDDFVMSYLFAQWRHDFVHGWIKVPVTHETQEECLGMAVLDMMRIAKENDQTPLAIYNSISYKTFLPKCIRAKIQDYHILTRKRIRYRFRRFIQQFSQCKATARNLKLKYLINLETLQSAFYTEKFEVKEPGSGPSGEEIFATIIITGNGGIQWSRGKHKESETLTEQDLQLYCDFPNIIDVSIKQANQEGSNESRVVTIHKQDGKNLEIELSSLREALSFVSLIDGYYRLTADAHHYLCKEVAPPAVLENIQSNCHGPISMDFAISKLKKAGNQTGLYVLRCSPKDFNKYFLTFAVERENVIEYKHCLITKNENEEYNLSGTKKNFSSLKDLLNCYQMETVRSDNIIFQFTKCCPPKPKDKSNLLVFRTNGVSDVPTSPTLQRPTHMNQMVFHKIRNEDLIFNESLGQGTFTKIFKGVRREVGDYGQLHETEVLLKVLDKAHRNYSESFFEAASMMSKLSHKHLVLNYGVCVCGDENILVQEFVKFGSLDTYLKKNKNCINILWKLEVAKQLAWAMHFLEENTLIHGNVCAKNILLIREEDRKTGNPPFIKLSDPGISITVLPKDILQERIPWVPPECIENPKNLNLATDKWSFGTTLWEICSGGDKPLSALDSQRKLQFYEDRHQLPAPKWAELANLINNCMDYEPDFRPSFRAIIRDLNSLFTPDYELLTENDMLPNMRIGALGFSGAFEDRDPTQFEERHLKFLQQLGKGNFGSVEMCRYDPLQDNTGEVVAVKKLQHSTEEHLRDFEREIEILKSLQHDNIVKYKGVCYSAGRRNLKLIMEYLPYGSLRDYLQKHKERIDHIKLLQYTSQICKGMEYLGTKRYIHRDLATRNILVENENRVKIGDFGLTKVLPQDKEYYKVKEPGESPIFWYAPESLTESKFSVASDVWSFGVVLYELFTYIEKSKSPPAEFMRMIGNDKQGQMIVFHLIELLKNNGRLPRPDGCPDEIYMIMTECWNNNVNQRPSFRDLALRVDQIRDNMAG
# Summary of the method: as §1
# HUVEC cells = assay: Cell growth activity assay (MTS), HUVEC cell model; type: cell-based; conditions: Homo sapiens, 72 h; for activity at 10 µM: read-out: HUVEC % growth rate @10 μM
# From the text: MTS assay is a routine method for cell toxicity detection. The basic principle is based on the capacity of dehydrogenase in the mitochondria of living cells to reduce a novel yellow […] MTS to formazan, so that the amount of living cells is proportional to the amount of formazan product by detecting the absorbance at 490 nm (OD), thereby speculating the amount of living cells according to the OD value, and understanding the capacity of the test compound to inhibit the growth of cells or to kill the cells.
# HeLa cell is a human cervical cancer cell line, and belongs to epithelial tumor cell line; HUVEC is a human umbilical vein endothelial cell, and belongs to primary endothelial cell; both types of cells express all subtypes except for JAK3.
# The change of JAK kinase activity has no significant influence on other cell types except for the immune cells, and both cell models mentioned above are mainly used to evaluate whether there are any other kinase targets besides JAK kinases or there are nonselective cell toxicities.
# In this experiment, a cultured cell model is incubated with the test compounds at different concentrations for a specific duration. The effect of the treatment by the test compound on the growth of cells is detected using MTS assay.
# MTS is performed according to routine procedure in a 96-well plate.
# The model cells are inoculated into each well of the 96-well plate at an appropriate concentration (about 5000 cells/well). After 24 h, the test compounds are added at different concentration gradients (the highest final concentration is 40 μM). A solvent control (DMSO) and a negative control are also performed at the same time. Each experiment is repeated for 3 times. The cells are detected after cultured for another 72 h.
# After all culture medium is aspirated out of the well, 100 μL fresh medium and 20 μL pre-formulated mixture of MTS and PMS (in a ratio of 20:1) are added to each well. After incubation at 37° C. for 2 h, it is then detected by a microplate reader (490 nm).
# The cell growth inhibitory rate and GI50 of the test compound are calculated as above.
# Based on the above method, cytological evaluation is performed to the compounds described herein (for the detection of CTLL-2 cell, the concentration of the test compound is 300 nM; […]).
# CTLL-2 cells = assay: Cell growth activity assay (MTS), CTLL-2 cell model; type: cell-based, mouse; conditions: Mus musculus; for activity at 0.3 µM: CTLL-2, 300 nM, 24 h, read-out: CTLL-2 % growth rate @300 nM
# Summary of the method: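 Mouse IL-2-dependent T-cell line seeded ~20,000 cells/well, compounds added after 24 h at gradient concentrations (top 10 μM; CTLL-2 evaluation at 300 nM), cultured another 24 h. MTS/PMS added, 2 h at 37° C, absorbance 490 nm; inhibition vs DMSO control after negative-control background subtraction, GI50 calculated; triplicate.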
# JAK3 = JAK3 (Homo sapiens (Human), UniProt P52333); assay: Z'-LYTE enzymatic activity detection, JAK3; type: biochemical; conditions: test compound 30 nM; for inhibition at 0.03 µM: read-out: JAK3 % inhibitory rate @30 nM
# JAK3, sequence (P52333 whole entry): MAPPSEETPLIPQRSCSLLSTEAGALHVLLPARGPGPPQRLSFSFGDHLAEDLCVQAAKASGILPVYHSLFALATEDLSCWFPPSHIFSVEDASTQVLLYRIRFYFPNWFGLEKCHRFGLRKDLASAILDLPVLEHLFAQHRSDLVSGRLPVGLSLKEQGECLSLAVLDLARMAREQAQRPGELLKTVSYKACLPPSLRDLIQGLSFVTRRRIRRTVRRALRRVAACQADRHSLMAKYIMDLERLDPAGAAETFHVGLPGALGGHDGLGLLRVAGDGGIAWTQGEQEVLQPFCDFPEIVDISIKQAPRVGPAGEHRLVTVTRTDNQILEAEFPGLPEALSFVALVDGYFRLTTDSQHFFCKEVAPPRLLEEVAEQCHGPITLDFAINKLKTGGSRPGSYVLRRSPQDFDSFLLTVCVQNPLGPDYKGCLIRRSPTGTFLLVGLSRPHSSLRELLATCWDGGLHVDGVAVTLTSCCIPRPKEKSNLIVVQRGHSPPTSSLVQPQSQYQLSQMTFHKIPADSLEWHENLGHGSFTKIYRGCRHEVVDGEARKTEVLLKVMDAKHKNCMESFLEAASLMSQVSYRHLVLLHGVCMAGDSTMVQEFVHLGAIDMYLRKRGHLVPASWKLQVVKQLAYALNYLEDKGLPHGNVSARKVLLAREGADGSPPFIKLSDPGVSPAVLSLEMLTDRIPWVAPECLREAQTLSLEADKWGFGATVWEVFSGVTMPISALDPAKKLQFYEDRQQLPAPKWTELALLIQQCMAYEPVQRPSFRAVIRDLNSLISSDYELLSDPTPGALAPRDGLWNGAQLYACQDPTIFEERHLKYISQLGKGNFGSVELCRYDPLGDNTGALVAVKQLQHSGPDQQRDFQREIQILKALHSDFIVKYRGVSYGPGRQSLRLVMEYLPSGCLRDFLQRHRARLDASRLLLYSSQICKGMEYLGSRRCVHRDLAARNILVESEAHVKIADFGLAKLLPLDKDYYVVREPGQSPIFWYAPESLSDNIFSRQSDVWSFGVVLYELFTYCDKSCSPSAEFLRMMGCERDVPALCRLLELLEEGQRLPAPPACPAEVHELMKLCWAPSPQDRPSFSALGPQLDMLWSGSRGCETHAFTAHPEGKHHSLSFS
# Summary of the method: as §1
# HeLa cells = assay: Cell growth activity assay (MTS), HeLa cell model; type: cell-based, human; set-up: activity: dose or concentration left out as unconfirmed; conditions: Homo sapiens, HeLa, 72 h; for activity: read-out: HeLa % growth rate
# Summary of the method: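 HeLa human cervical cancer cells were plated at about 5000 cells/well in a 96-well plate. After 24 h, test compounds were added in concentration gradients (highest final concentration 40 μM), alongside a DMSO solvent control and a negative control. After another 72 h, the medium was replaced with 100 μL fresh medium plus 20 μL MTS/PMS (20:1). Plates were incubated 2 h at 37° C. and absorbance was read at 490 nm to give growth inhibition and GI50.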
# [1] = tested on: collagen-induced arthritis (CIA) model of rats; assay: Collagen-induced arthritis (CIA) model of rats; type: in vivo; conditions: rat CIA
# Protocol: Objective: in this test, arthritis is induced by chicken collagen in Wistar rats. After in vivo administration of the compounds of Example 7 and Example 22, the change of the disease index for arthritis in rats is evaluated to determine the therapeutic effect of the test compounds on rat arthritis.
# Experimental animals: 36 female Wistar rats were purchased from the animal experiment center, Sun Yat-Sen University (Guangzhou) with the body weight ranging from 180 to 200 g at the beginning of experiment. Four groups (8 rats in each group) were used as the arthritis model, and another group (4 rats) was used as normal control.
# Materials: chicken type II collagen and Freund's complete adjuvant were purchased from Beijing Biolead Science and Technology Development Co., Ltd. Positive control: methotrexat (MTX).
# Preparation method: the test compounds were prepared by adding them to freshly prepared 0.2% CMC-Na+0.1% Tween-80 solution in sterile water to a desired concentration and thoroughly mixing through ultrasound.
# CIA model: the chicken collagen was fully emulsified in equal volume of freud's complete adjuvant, and subcutaneously injected at the tail root of the rat on day 0 for sensitization (250 μL/rat). Another injection was performed at the tail root on day 7 for supplementary immunization (100 μL/rat). After arthritis occurred (on about day 13), the rats were randomly divided into 4 groups with 8 rats in each group. Administration started on day 14 after the first immunization, and lasted for 14 days. The limbs of a rat were visually inspected, and the severity of arthritis was scored in a range from […]: 0=normal; 1=a slight symptom, with signs, such as red and swollen ankle or wrist; 2=moderate red and swollen ankle or wrist; 3=severe red and swollen paw, including toes; 4=severe swollen joint accompanied with dysfunction; the highest score for each rat was 16. The thickness of toes of posterior limbs and the paw volume were measured at the same time.
# Medication: the rats were i.g. administered with the compound of Example 7 at a concentration of 40 mg/kg twice/day; or the rats were i.g. administered with the compound of Example 22 at a concentration of 40 mg/kg twice/day. For the positive control, 5 mg/kg MTX was intraperitoneally injected twice a week. The i.g. administration of solvent was used as the negative control. The data obtained 14 days after administration and before administration were compared.
# [2] = 14 days after administration, Examples 40 mg/kg i.g. twice/day, MTX 5 mg/kg i.p. twice a week
JAK1 RV (ratio between the inhibitory rate of the test compound and that of Xeljanz) (JAK1),inhibition at 0.3 µM (JAK1),JAK2 RV (ratio between the inhibitory rate of the test compound and that of Xeljanz) (JAK2),inhibition at 0.03 µM (JAK2),JAK3 RV (ratio between the inhibitory rate of the test compound and that of Xeljanz) (JAK3),inhibition at 0.03 µM (JAK3),GI50 (HeLa cells),SMILES,activity at 10 µM (HUVEC cells),activity at 0.3 µM (CTLL-2 cells),activity (HeLa cells),"Inhibitory rate for arthritis score % [1, 2]","Inhibitory rate for paw volume % [1, 2]","Inhibitory rate for toe thickness % [1, 2]","Body weight growth rate % ([1]; 14 days after administration, solvent = 100.0, Examples 40 mg/kg i.g. twice/day, MTX 5 mg/kg i.p. twice a week)",toxicity to the rats judged from body weight ([1]; compared to the solvent group),GI50 (HUVEC cells),"GI50 (CTLL-2 cells; CTLL-2, 24 h)"
0.93,79%,0.03,1%,0.97,84%,–,"C=CC(=O)Nc1cc(Nc2ncc(Cl)c(NCCCNC(=O)c3ccc(F)cc3)n2)ccc1F [Example 17, N-(3-(2-(3-acrylamido-4-fluoro-phenylamino)-5-chloropyrimidinyl-4-amino)propyl)-4-fluorobenzamide]",1%,20%,1%,–,–,–,–,–,–,–
–,39%,–,0%,–,59%,–,"C=CC(=O)N(C)c1cc(Nc2ncc(C)c(NCCCNC(=O)c3ccc(F)cc3)n2)ccc1F [Example 19, 4-fluoro-N-(3-(2-(4-fluoro-3-(N-methylacrylamido)phenylamino)-5-methylpyrimidinyl-4-amino)propyl)benzamide]",136%,67%,108%,–,–,–,–,–,–,–
0.69,59%,0.07,2%,0.82,71%,–,"C=CC(=O)N(C)c1cc(Nc2ncc(C)c(NCCCNC(=O)c3ccc(C(F)(F)F)cc3)n2)ccc1F [Example 21, N-(3-(2-(4-fluoro-3-(N-methylacrylamido)phenylamino)-5-methylpyrimidinyl-4-amino)propyl)-4-trifluoromethylbenzamide]",102%,57%,94%,–,–,–,–,–,–,–
0.45,42%,–,–,0.59,35%,–,"C=CC(=O)N(C)c1cc(Nc2ncc(Cl)c(NCCCNC(=O)C3CCN(C)CC3)n2)ccc1F [Example 27, N-(3-(5-chloro-2-(4-fluoro-3-(N-methylacrylamido)phenylamino)pyrimidinyl-4-amino)propyl)-1-methylpiperidinyl-4-formamide]",6%,85%,30%,–,–,–,–,–,–,–
0.40,34%,0.03,2%,0.85,81%,–,"C=CC(=O)Nc1cc(Nc2ncc(Cl)c(NCCCNC(=O)c3ccc(C#N)cc3)n2)ccc1F [Example 28, N-(3-(2-(3-acrylamido-4-fluorophenylamino)-5-chloropyrimidinyl-4-amino)propyl)-4-cyano-benzamide]",98%,77%,81%,–,–,–,–,–,–,–
0.57,49%,0.03,2%,0.94,89%,–,"C=CC(=O)N(C)c1cc(Nc2ncc(Cl)c(NCCCNC(=O)c3ccc(N(C)C)cc3)n2)ccc1F [Example 32, N-(3-(5-chloro-2-(4-fluoro-3-(N-methylacrylamido)phenylamino)pyrimidinyl-4-amino)propyl)-4-dimethylamino benzamide]",72%,16%,68%,–,–,–,–,–,–,–
–,–,–,–,–,–,–,"CN(Cc1cnc2nc(N)nc(N)c2n1)c1ccc(C(=O)N[C@@H](CCC(=O)O)C(=O)O)cc1 [MTX, methotrexate, reference compound]",–,–,–,73.1%,43.1%,70.2%,95.4%,certain toxicity,–,–
–,–,–,–,–,–,> 40 µM,"C[C@@H]1CCN(C(=O)CC#N)C[C@@H]1N(C)c1ncnc2[nH]ccc12 [Xeljanz, tofacitinib citrate, reference compound]",–,–,–,–,–,–,–,–,> 40 µM,0.067 µM
